{
  "source": "patent US20080014230A1",
  "about": "“Cosmetic compositions combining a C-glycoside derivative and an N-acylamino amide derivative” (L'OREAL, priority 2006, published 2008)",
  "system": "keratinocyte transglutamase (TGk) activity in normal human epidermal keratinocytes (NHEK) of R3KO15 type",
  "assay": "keratinocyte transglutamase (TGk) activity after prolonged contact of keratinocytes with the test composition",
  "format": "cell-based",
  "settings": "for Activity/μg: TGk activity relative to the amount of proteins, calcium-free medium; for %/blank: TGk activity, % of blank (−Ca)",
  "protocol": "The tests performed below use normal human epidermal keratinocytes (NHEK) of R3KO15 type obtained from breast surgery.\nThe activity of a composition in accordance with the invention is tested with regard to these keratinocytes by assaying the keratinocyte transglutamase (TGk) activity after prolonged contact of the keratinocytes with the test composition, the increase in TGk activity sanctioning a stimulation of keratinocyte differentiation.\nThe activity is tested in an SFM medium available from Invitrogen under the reference 17005034.\nIts composition is as follows: • EGF 0.25 ng/ml, • pituitary extract (PE) 25 μg/ml (Invitrogen 3700015), • gentamycin 25 μg/ml (Sigma G1397) • optionally supplemented with 1.5 mM final calcium chloride (Prolabo 22317297).\nKeratinocytes (R3KO15) are precultured in SFM1x medium in 96-well plates (one plate for the test, one for the protein assay and one for the MTT). After incubation for 24 hours at 37° C., the culture medium is removed and replaced with SFM medium, which is not supplemented (calcium-free blank) or supplemented with 1.5 mM final of calcium chloride and not containing (blank) or containing the products, mixed with the test or the references.\nAfter incubation for 48 hours at 37° C. and 5% CO2, the culture medium is removed and the cells are again treated and then incubated for 48 hours at 37° C.\nAll the experimental conditions are performed in hexaplicate.\nThe cell lawns are washed and then sonicated, on ice, in Tris/EDTA pH 8.0 buffer.\nThe membrane TGk enzyme is extracted in the presence of Triton X-100 (incubation with stirring at 4° C.) and the TGk activity is then determined by measuring the covalent addition of tritiated putrescine at 2 μCi/ml final (Amersham TRK 414; 1.04 TBq/mmol, 28 Ci/mmol) to casein (acceptor protein, 2 mg/ml final), in a Tris 0.1 M, CaCl2 4 mM, EDTA 0.4 mM, DTT 5 mM, pH 8.3 buffer, for 2 hours at 37° C.\nThe casein is precipitated by addition of 20% trichloroacetic acid (TCA) containing 1 mM putrescine and the precipitates are recovered on a Skatron filter and collector (extensive washing with 5% TCA, 0.1 mM putrescine and ethanol) and the dry filters are then counted by liquid scintillation.\nThe proteins of each sample are assayed using the Dc Protein Assay kit (BioRad 500-0116) and according to the protocol recommended by the manufacturer.\nThe results obtained are given in Table 1 below, the TGk activity being relative to the amount of proteins—calcium-free medium.",
  "data": [
    {"smiles": "CC(=O)N(c1cccc(C(F)(F)F)c1)C(C(=O)NCC(=O)O)C(C)C", "note": "(centres unmarked) [N-acylamino amide, {2-[acetyl(3-trifluoromethyl-phenyl)amino]-3-methylbutyrylamino}acetic acid]", "values": [
      {"measurement": "Activity/μg", "setting": "0.04 mg/ml", "value": 114},
      {"measurement": "Activity/μg", "setting": "0.2 mg/ml", "value": 104},
      {"measurement": "%/blank", "setting": "0.04 mg/ml", "value": 91, "unit": "%"},
      {"measurement": "%/blank", "setting": "0.2 mg/ml", "value": 82, "unit": "%"},
      {"measurement": "effect on the TGk activity (in words)", "setting": "tested at 0.2 mg/ml and 0.04 mg/ml", "value": "no significant effect"}
    ]},
    {"smiles": "CC(O)C[C@@H]1OC[C@@H](O)[C@H](O)[C@H]1O", "note": "(stereo partly drawn) [C-glycoside, C-β-D-xylopyranoside-2-hydroxypropane]", "values": [
      {"measurement": "Activity/μg", "setting": "1 mM", "value": 171},
      {"measurement": "Activity/μg", "setting": "3 mM", "value": 210},
      {"measurement": "%/blank", "setting": "1 mM", "value": 136, "unit": "%"},
      {"measurement": "%/blank", "setting": "3 mM", "value": 167, "unit": "%"}
    ]},
    {"smiles": "CC1=C(/C=C/C(C)=C/C=C/C(C)=C/C(=O)O)C(C)(C)CCC1", "note": "[Retinoic acid, retinoic acid, reference compound]", "values": [
      {"measurement": "Activity/μg", "setting": "10^−7 M", "value": 111},
      {"measurement": "%/blank", "setting": "10^−7 M", "value": 88, "unit": "%"}
    ]}
  ]
}
